The results in this text go back to patent publication US20230339981A1, “KRAS G12D MODULATING COMPOUNDS” (priority 2022, published 2023).

As usually defined, the IC50 is the concentration at which inhibition is half-maximal. High values mean a need for much substance, low ones inhibition by little substance. Broadly, the EC50 is the concentration that produces a half-maximal response. A higher EC50 goes with a less potent agent.

One test concerns the target GDP-loaded KRAS G12D (Homo sapiens (Human), UniProt P01116, G12D). Description: KRAS G12D (GDP) biochemical assay (TR-FRET probe displacement). The settings on record: 2 hours. The format is binding. The essentials: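 TR-FRET probe displacement: 1:3 DMSO serial dilutions pre-incubated 30 min with GDP-bound KRAS G12D, followed by Eu-streptavidin/probe for 2 h at room temperature (Hepes pH 7.4, NaCl, MgCl2, Tween-20 buffer). IC50 defined as concentration halving TR-FRET ratio, from sigmoidal dose-response fit.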
(TR-FRET usually uses a lanthanide donor and a delayed reading to cut background.)

The test system of the next test is GP2D (KRAS G12D) cells. Description: 2D cell viability assay (CellTiter-Glo). The format is cell-based. The following applies: GP2d, 96 h, 4 days. The essentials: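 Viability was read by CellTiter-Glo after 4 days at 37 °C of 2D culture of KRAS G12D GP2D cells (1000/well, RPMI, 10% FBS) on pre-spotted threefold compound dilutions. EC50 was fitted with a sigmoidal dose-response model as the point of half-maximal luminescence loss.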
For orientation: Cellular ATP, detected with luciferase, serves as a proxy for viable cell number.

The subject of the next test is AsPC-1 (KRAS G12D) cells. The experiment in a line: 3D cell viability assay (spheroids, CellTiter-Glo 3D). Type of test: cell-based. The settings on record: Homo sapiens, ASPC1, 96 h, AsPC-1 cells, 3D spheroids, 4 days. How it is done:
Example C. 3D Cell Viability Assay
Compounds were tested in a 384-well format for their ability to inhibit the viability of AsPC-1 (KRAS G12D) cells in 3D assays. On day 0, 1000 cells/well (80 μL volume per well) in DMEM with 10% FBS, and Penicillin-Streptomycin-Glutamine were plated in 384-well Ultra-Low Attachment Spheroid Microplates (Corning, Catalog #3830) on the BioTEK EL406 liquid dispenser with a 5 μL dispensing cassette (BioTek 7170011). The plates were incubated at 37° C., 5% CO2 for 3 days to allow spheroid formation. On day 3, compounds were serially diluted (1:3) in DMSO. The Biomek FX was used to add 400 nL of test molecule per well. The plates were incubated at 37° C., 5% CO2 for 4 days before addition of CellTiter-Glo 3D (Promega, Catalog #9683) reagent and measurement of luminescence signal. EC50 values were defined as the compound concentration that causes a 50% decrease in luminescence signal and were calculated using a sigmoidal dose-response model to generate curve fits.

GDP-loaded KRAS G12D, sequence (P01116-2 other isoform, or with tags, fused parts or gaps G12D): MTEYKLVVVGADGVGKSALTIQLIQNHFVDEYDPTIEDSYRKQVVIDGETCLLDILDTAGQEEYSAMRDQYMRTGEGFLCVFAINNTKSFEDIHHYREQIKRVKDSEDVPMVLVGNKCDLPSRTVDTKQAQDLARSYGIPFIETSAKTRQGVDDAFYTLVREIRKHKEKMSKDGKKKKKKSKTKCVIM

At GDP-loaded KRAS G12D, `Oc1cc(-c2nc3c4c(nc(OC[C@@]56CCCN5C[C@H](F)C6)nc4c2F)N2C[C@H]4CC[C@H](N4)[C@H]2CC3)c2c(F)c(Cl)ccc2c1` [Example 40, 6-chloro-5-fluoro-4-((5aR,6S,9R)-1-fluoro-12-(((2R,7aS)-2-fluorotetrahydro-1H-pyrrolizin-7a(5H)-yl)methoxy)-4,5,5a,6,7,8,9,10-octahydro-3,10a,11,13,14-pentaaza-6,9-methanonaphtho[1,8-ab]heptalen-2-yl)naphthalen-2-ol] gave an IC50 of 2 nM. The half-maximal effective concentration (EC50) is 19 nM in the test with GP2D (KRAS G12D) cells and 74 nM in the test on AsPC-1 (KRAS G12D) cells.
For `Oc1cc(-c2nc3c4c(nc(OC[C@@]56CCCN5C[C@H](F)C6)nc4c2F)N2C[C@H]4CC[C@H](N4)[C@H]2CC3)c2c(OC(F)(F)F)c(F)ccc2c1` [Example 41, 6-fluoro-4-((5aR,6S,9R)-1-fluoro-12-(((2R,7aS)-2-fluorotetrahydro-1H-pyrrolizin-7a(5H)-yl)methoxy)-4,5,5a,6,7,8,9,10-octahydro-3,10a,11,13,14-pentaaza-6,9-methanonaphtho[1,8-ab]heptalen-2-yl)-5-(trifluoromethoxy)naphthalen-2-ol] the same measures were 0.6 nM, 3 nM and 8 nM.
For the compound `Oc1cc(-c2nc3c4c(nc(OC[C@@]56CCCN5C[C@H](F)C6)nc4c2F)N2C[C@H]4CC[C@H](N4)[C@H]2CO3)c2c(OC3CC3)c(F)ccc2c1` [Example 42, 5-cyclopropoxy-6-fluoro-4-((5aS,6S,9R)-1-fluoro-12-(((2R,7aS)-2-fluorotetrahydro-1H-pyrrolizin-7a(5H)-yl)methoxy)-5a,6,7,8,9,10-hexahydro-5H-4-oxa-3,10a,11,13,14-pentaaza-6,9-methanonaphtho[1,8-ab]heptalen-2-yl)naphthalen-2-ol], the IC50 at GDP-loaded KRAS G12D was found to be 2 nM. The results for the EC50 with GP2D (KRAS G12D) cells and with AsPC-1 (KRAS G12D) cells were 28 nM and 95 nM, respectively.
Regarding `C#Cc1c(F)ccc2cc(O)cc(-c3nc4c5c(nc(OC[C@@]67CCCN6[C@H](Cn6ccnn6)CC7)nc5c3F)N3C[C@H]5CC[C@H](N5)[C@H]3CO4)c12` [Example 49, 4-((5aS,6S,9R)-12-(((3S,7aS)-3-((1H-1,2,3-triazol-1-yl)methyl)tetrahydro-1H-pyrrolizin-7a(5H)-yl)methoxy)-1-fluoro-5a,6,7,8,9,10-hexahydro-5H-4-oxa-3,10a,11,13,14-pentaaza-6,9-methanonaphtho[1,8-ab]heptalen-2-yl)-5-ethynyl-6-fluoronaphthalen-2-ol], the IC50 at GDP-loaded KRAS G12D turned out to be 0.2 nM. For the same compound, the EC50 in the test with GP2D (KRAS G12D) cells worked out at 37 nM; in the test with AsPC-1 (KRAS G12D) cells, 140 nM.
On GDP-loaded KRAS G12D, `C#Cc1c(F)ccc2cc(O)cc(-c3cc4c5c(nc(OC[C@@]67CCCN6C[C@H](F)C7)nc5c3F)N3C[C@H]5CC[C@H](N5)[C@H]3CC4)c12` [Example 52, 5-ethynyl-6-fluoro-4-((1S,4R,14aR)-10-fluoro-8-(((2R,7aS)-2-fluorotetrahydro-1H-pyrrolizin-7a(5H)-yl)methoxy)-1,2,3,4,5,13,14,14a-octahydro-1,4-epiminoazepino[1′,2′:1,7]azepino[2,3,4-de]quinazolin-11-yl)naphthalen-2-ol] showed an IC50 of 0.1 nM. The EC50 with GP2D (KRAS G12D) cells was 1 nM; with AsPC-1 (KRAS G12D) cells, 7 nM.
In the same order, the values of `C#Cc1c(F)ccc2cc(O)cc(-c3nc4c5c(nc(OC[C@@]67CCCN6C[C@H](F)C7)nc5c3F)N3C[C@H]5CC[C@H](N5)[C@H]3CCC4)c12` [Example 75, 5-ethynyl-6-fluoro-4-((6aR,7S,10R)-1-fluoro-13-(((2R,7aS)-2-fluorotetrahydro-1H-pyrrolizin-7a(5H)-yl)methoxy)-5,6,6a,7,8,9,10,11-octahydro-4H-3,11a,12,14,15-pentaaza-7,10-methanocyclohepta[4,5]cycloocta[1,2,3-de]naphthalen-2-yl)naphthalen-2-ol] are 0.06 nM, 0.17 nM and 0.5 nM.
Compound `C#Cc1c(F)ccc2cccc(-c3nc4c5c(nc(OC[C@@]67CCCN6C[C@H](F)C7)nc5c3F)N3C[C@H]5CC[C@H](N5)[C@H]3CCC4)c12` [Example 76, (6aR,7S,10R)-2-(8-ethynyl-7-fluoronaphthalen-1-yl)-1-fluoro-13-(((2R,7aS)-2-fluorotetrahydro-1H-pyrrolizin-7a(5H)-yl)methoxy)-5,6,6a,7,8,9,10,11-octahydro-4H-3,11a,12,14,15-pentaaza-7,10-methanocyclohepta[4,5]cycloocta[1,2,3-de]naphthalene] returned an IC50 on GDP-loaded KRAS G12D of 0.1 nM. For the same compound, the EC50 in the test with GP2D (KRAS G12D) cells was 4 nM; with AsPC-1 (KRAS G12D) cells it was 27 nM.
In the same order, the values of `C#Cc1c(F)ccc2cc(O)cc(-c3nc4c5c(nc(OCC6(CN7CCC[Si](C)(C)CC7)CC6)nc5c3F)N3C[C@H]5CC[C@H](N5)[C@H]3CC4)c12` [Example 78, 4-((5aR,6S,9R)-12-((1-((4,4-dimethyl-1,4-azasilepan-1-yl)methyl)cyclopropyl)methoxy)-1-fluoro-4,5,5a,6,7,8,9,10-octahydro-3,10a,11,13,14-pentaaza-6,9-methanonaphtho[1,8-ab]heptalen-2-yl)-5-ethynyl-6-fluoronaphthalen-2-ol] are 0.2 nM, 3.9 nM and 15 nM.
In the same order, the values of `C[C@H]1C[C@@H]2[C@@H]3CC[C@H](CN2c2nc(OC[C@@]45CCCN4C[C@H](F)C5)nc4c(F)c(-c5cc(O)cc6ccc(F)c(F)c56)nc1c24)N3` [Example 81, 5,6-difluoro-4-((4S,5aR,6S,9R)-1-fluoro-12-(((2R,7aS)-2-fluorotetrahydro-1H-pyrrolizin-7a(5H)-yl)methoxy)-4-methyl-4,5,5a,6,7,8,9,10-octahydro-3,10a,11,13,14-pentaaza-6,9-methanonaphtho[1,8-ab]heptalen-2-yl)naphthalen-2-ol] are 0.2 nM, 2.8 nM and 18 nM.
For `C#Cc1c(F)ccc2cccc(-c3nc4c5c(nc(OC[C@@]67CCCN6C[C@H](F)C7)nc5c3F)N3C[C@H]5CC[C@H](N5)[C@@H]3[C@@H](C)[C@H]4C)c12` [Example 86, (4R,5S,5aS,6S,9R)-2-(8-ethynyl-7-fluoronaphthalen-1-yl)-1-fluoro-12-(((2R,7aS)-2-fluorotetrahydro-1H-pyrrolizin-7a(5H)-yl)methoxy)-4,5-dimethyl-4,5,5a,6,7,8,9,10-octahydro-3,10a,11,13,14-pentaaza-6,9-methanonaphtho[1,8-ab]heptalene] the same measures were 0.5 nM, 14.4 nM and 64 nM.
As for `C#Cc1c(F)ccc2cc(O)cc(-c3nc4c5c(nc(OC[C@@]67CCCN6C[C@H](F)C7)nc5c3F)N3C[C@H]5CC[C@H](N5)[C@@H]3[C@@H](C)[C@H]4C)c12` [Example 87, 5-ethynyl-6-fluoro-4-((4R,5S,5aS,6S,9R)-1-fluoro-12-(((2R,7aS)-2-fluorotetrahydro-1H-pyrrolizin-7a(5H)-yl)methoxy)-4,5-dimethyl-4,5,5a,6,7,8,9,10-octahydro-3,10a,11,13,14-pentaaza-6,9-methanonaphtho[1,8-ab]heptalen-2-yl)naphthalen-2-ol], at GDP-loaded KRAS G12D, the IC50 was 0.4 nM. In addition, the EC50 is 0.2 nM in the test on GP2D (KRAS G12D) cells and 0.3 nM with AsPC-1 (KRAS G12D) cells.
`C#Cc1c(F)ccc2cc(O)cc(-c3nc4c5c(nc(OC[C@@]67CCCN6C[C@H](F)C7)nc5c3F)N3C[C@H]5CC[C@H](N5)[C@@H]3[C@@H](CC)C4)c12` [Example 92, 4-((5S,5aS,6S,9R)-5-ethyl-1-fluoro-12-(((2R,7aS)-2-fluorotetrahydro-1H-pyrrolizin-7a(5H)-yl)methoxy)-4,5,5a,6,7,8,9,10-octahydro-3,10a,11,13,14-pentaaza-6,9-methanonaphtho[1,8-ab]heptalen-2-yl)-5-ethynyl-6-fluoronaphthalen-2-ol] registered an IC50 on GDP-loaded KRAS G12D of 1.9 nM. The EC50 was found to be 17.3 nM in the test with GP2D (KRAS G12D) cells and 52 nM in the test with AsPC-1 (KRAS G12D) cells.
In the same order, the values of `C#Cc1c(F)ccc2cccc(-c3nc4c5c(nc(OC[C@@]67CCCN6C[C@H](F)C7)nc5c3F)N3C[C@H]5CC[C@H](N5)[C@H]3C[C@H]4C)c12` [Example 95, (4R,5aS,6S,9R)-2-(8-ethynyl-7-fluoronaphthalen-1-yl)-1-fluoro-12-(((2R,7aS)-2-fluorotetrahydro-11H-pyrrolizin-7a(5H)-yl)methoxy)-4-methyl-4,5,5a,6,7,8,9,10-octahydro-3,10a,11,13,14-pentaaza-6,9-methanonaphtho[1,8-ab]heptalene] are 0.6 nM, 31.9 nM and 200 nM.
